According to ChEMBL document CHEMBL4000146, “Synthesis, antiplasmodial activity and mechanistic studies of pyrimidine-5-carbonitrile and quinoline hybrids” (Eur J Med Chem, 2015):
pEC50, pIC50: −log10 of the molar value. Activity calls are given as the source filed them. No cut-off for these calls is given here.

Columns and labels:
[1] = test system: Influenza B virus; test: microbe, parasite or virus in culture; conditions: MDCK
[2] = test system: Sindbis virus; assay type: functional; conditions: Vero
[3] = Cytotoxicity against human HeLa cells assessed as alteration of normal cell morphology by microscopic analysis; assay type: cell-based
[4] = test system: Human betaherpesvirus 5; assay type: functional, cell-based; conditions: Human betaherpesvirus 5, Davis, HEL
[5] = test system: Human alphaherpesvirus 3; assay type: functional, cell-based; conditions: Human alphaherpesvirus 3, 07-1, HEL
[6] = Cytotoxicity against human HEL cells assessed as inhibition of cell viability by colorimetric formazan-based MTS assay
[7] = test system: Vesicular stomatitis virus; test: microbe, parasite or virus in culture; conditions: HeLa
[8] = Selectivity index, ratio of IC50 for human HeLa cells to IC50 for chloroquine-resistant asexual intraerythrocytic stage of Plasmodium falciparum Dd2; assay type: toxicity, cell-based; conditions: read-out: Ratio IC50
[9] = test system: Vesicular stomatitis virus; test: microbe, parasite or virus in culture; conditions: HEL
[10] = test system: Influenza A virus; test: microbe, parasite or virus in culture; conditions: H3N2, MDCK
[11] = Cytotoxicity against human HEL cells assessed as alteration of normal cell morphology by microscopic analysis; assay type: cell-based
[12] = test system: Coxsackievirus; assay type: functional, cell-based; conditions: B4, HeLa
[13] = test system: Vaccinia virus; test: microbe, parasite or virus in culture; conditions: Orthopoxvirus vaccinia, HEL
[14] = Cytotoxicity against MDCK cells assessed as alteration of normal cell morphology by microscopic analysis; assay type: cell-based, Canis lupus familiaris; conditions: dog
[15] = test system: Influenza A virus; test: microbe, parasite or virus in culture; conditions: H1N1, MDCK
[16] = test system: L1210; test: Cytotoxicity against mouse L1210 cells assessed as inhibition of cell proliferation by Coulter counter analysis; assay type: cell-based
[17] = test system: unidentified adenovirus; assay type: functional, cell-based; conditions: HEL
[18] = test system: Human respirovirus 3; assay type: functional; conditions: Human respirovirus 3, Vero
[19] = test system: Plasmodium falciparum; test: Resistance index, ratio of IC50 for chloroquine-resistant asexual intraerythrocytic stage of Plasmodium falciparum Dd2 to IC50 for chloroquine-sensitive asexual intraerythrocytic stage of Plasmodium falciparum NF54; assay type: functional
[20] = test system: Human betaherpesvirus 5; assay type: functional, cell-based; conditions: Human betaherpesvirus 5, AD169, HEL
[21] = test system: Punta Toro virus; assay type: functional; conditions: Vero
[22] = test system: Plasmodium falciparum; test: microbe, parasite or virus in culture; conditions: NF54
[23] = test system: Human alphaherpesvirus 3; assay type: functional, cell-based; conditions: Human alphaherpesvirus 3, strain Oka vaccine, HEL
[24] = test system: Plasmodium falciparum; test: microbe, parasite or virus in culture; conditions: Dd2
[25] = test system: Human orthopneumovirus; assay type: functional, cell-based; conditions: human respiratory syncytial virus, HeLa
[26] = test system: Human alphaherpesvirus 1; assay type: functional, cell-based; conditions: Human alphaherpesvirus 1, KOS, HEL
[27] = Cytotoxicity against MDCK cells assessed as inhibition of cell viability by colorimetric formazan-based MTS assay; parameters: species or system Canis lupus familiaris; conditions: dog
[28] = test system: HeLa; test: Cytotoxicity against human HeLa cells assessed as inhibition of cell proliferation by Coulter counter analysis; assay type: cell-based
[29] = Selectivity index, ratio of IC50 for human HeLa cells to IC50 for chloroquine-sensitive asexual intraerythrocytic stage of Plasmodium falciparum NF54; assay type: toxicity, cell-based; conditions: read-out: Ratio IC50
[30] = test system: Human alphaherpesvirus 2; assay type: functional, cell-based; conditions: Human alphaherpesvirus 2, G, HEL
[31] = test system: CCRF-CEM; test: Cytotoxicity against human CEM cells assessed as inhibition of cell proliferation by Coulter counter analysis; assay type: cell-based
[32] = test system: Mammalian orthoreovirus 1; assay type: functional; conditions: Mammalian orthoreovirus 1, Vero
[33] = test system: Coxsackievirus; assay type: functional; conditions: B4, Vero
[34] = Cytotoxicity against african green monkey Vero cells assessed as alteration of normal cell morphology by microscopic analysis; assay type: cell-based; conditions: chlorocebus sabaeus
[35] = test system: Plasmodium falciparum; test: Potency index, ratio of chloroquine IC50 to test compound IC50 for chloroquine-resistant asexual intraerythrocytic stage of Plasmodium falciparum Dd2; assay type: functional
[36] = test system: Human alphaherpesvirus 1; assay type: functional, cell-based; conditions: Human alphaherpesvirus 1, KOS, HEL; remark: listed apart in the source
[37] = test system: Heme; test: Binding affinity to monomeric heme (unknown origin) assessed as 1:1 stoichiometry for monomeric heme-compound complex at pH 5.6 by Job's plot analysis
[38] = test system: Heme; test: Binding affinity to monomeric heme (unknown origin) assessed as 1:1 ratio of monomeric heme-compound complex at 0.24 mM by mass spectra analysis
[39] = test system: Heme; test: Binding affinity to monomeric heme (unknown origin) assessed as 1:1 stoichiometry for monomeric heme-compound complex at pH 7.5 by Job's plot analysis
[40] = test system: mu-oxodimeric heme; test: Binding affinity to mu-oxo-heme (unknown origin) assessed as 1:1 stoichiometry for mu-oxo-heme-compound complex at pH 5.8 by Job's plot analysis

COc1cc(-c2nc(SC)nc(NCCCCNc3ccnc4cc(Cl)ccc34)c2C#N)cc(OC)c1OC gave a pEC50 [1] of under 6.10, a pEC50 [2] of under 6.10 and an MCC [3] of 20 µM. For the same molecule, the pEC50 [4] was under 5.40, the pEC50 [5] was under 5.40 and the CC50 [6] was 1500 nM. It also gave a pEC50 [7] of under 5.40, a selectivity ratio [8] of 37.9 and a pEC50 [9] of under 6.10. The pEC50 [10] was under 6.10, the MCC [11] was 4 to 20 µM and the pEC50 [12] was under 5.40. For the same molecule, the pEC50 [13] was under 6.10, the MCC [14] was 4 µM and the pEC50 [15] was under 6.10. The pIC50 [16] was 5.42, the pEC50 [17] was under 6.10 and the pEC50 [18] was under 6.10. The “Ratio IC50” value [19] was 0.98, the pEC50 [20] was under 5.40 and the pEC50 [21] was under 6.10. The pIC50 [22] was 7.04, the pEC50 [23] was under 5.40 and the pIC50 [24] was 7.05. For the same molecule, the pEC50 [25] was under 5.40, the pEC50 [26] was under 6.10 and the CC50 [27] was 2000 nM. It also gave a pIC50 [28] of 5.47, a selectivity ratio [29] of 37.4 and a pEC50 [30] of under 6.10. The pIC50 [31] was 5.44, the pEC50 [32] was under 6.10 and the pEC50 [33] was under 6.10. For the same molecule, the MCC [34] was 4 µM, the “Ratio IC50” value [35] was 3 and the pEC50 [36] was under 6.10.

In the case of CSc1nc(OCCCNc2ccnc3cc(Cl)ccc23)c(C#N)c(-c2ccccc2)n1, the pEC50 [1] was under 6.10, the pEC50 [2] was under 6.10 and the MCC [3] was 4 µM. It also gave a pEC50 [4] of under 6.10, a pEC50 [5] of under 6.10 and a CC50 [6] of 1700 nM. For the same molecule, the pEC50 [7] was under 6.10, the selectivity ratio [8] was 16.3 and the pEC50 [9] was under 6.10. The pEC50 [10] was under 6.10, the MCC [11] was 4 µM and the pEC50 [12] was under 6.10. The pEC50 [13] was under 6.10, the MCC [14] was 4 µM and the pEC50 [15] was under 6.10. For the same molecule, the pIC50 [16] was 5.41, the pEC50 [17] was under 6.10 and the pEC50 [18] was under 6.10. For the same molecule, the “Ratio IC50” value [19] was 2.34, the pEC50 [20] was under 6.10 and the pEC50 [21] was under 6.10. The pIC50 [22] was 7.05, the pEC50 [23] was under 6.10 and the pIC50 [24] was 6.68. For the same molecule, the pEC50 [25] was under 6.10, the pEC50 [26] was under 6.10 and the CC50 [27] was 2100 nM. For the same molecule, the pIC50 [28] was 5.47, the selectivity ratio [29] was 38.3 and the pEC50 [30] was under 6.10. It also gave a pIC50 [31] of 5.48, a pEC50 [32] of under 6.10 and a pEC50 [33] of under 6.10. For the same molecule, the MCC [34] was 4 µM and the pEC50 [36] was under 6.10.

With CSc1nc(NCCCCNc2ccnc3cc(Cl)ccc23)c(C#N)c(-c2ccccc2)n1 the pEC50 [1] was under 5.40, the pEC50 [2] was under 5.40 and the MCC [3] was 100 µM. The pEC50 [4] was under 5.40, the pEC50 [5] was under 5.40 and the CC50 [6] was 8200 nM. It also gave a pEC50 [7] of under 4.70, a selectivity ratio [8] of 28.7 and a pEC50 [9] of under 6.10. For the same molecule, the pEC50 [10] was under 5.40, the MCC [11] was 4 to 20 µM and the pEC50 [12] was under 4.70. The pEC50 [13] was under 6.10, the MCC [14] was 20 µM and the pEC50 [15] was under 5.40. The pIC50 [16] was 5.36, the pEC50 [17] was under 5.40 and the pEC50 [18] was under 5.40. The “Ratio IC50” value [19] was 2.71, the pEC50 [20] was under 5.40 and the pEC50 [21] was under 5.40. The pIC50 [22] was 6.96, the pEC50 [23] was under 5.40 and the pIC50 [24] was 6.53. For the same molecule, the pEC50 [25] was under 4.70, the pEC50 [26] was under 6.10 and the CC50 [27] was 10700 nM. It also gave a pIC50 [28] of 5.07, a selectivity ratio [29] of 78.3 and a pEC50 [30] of under 6.10. The pIC50 [31] was 5.28, the pEC50 [32] was under 5.40 and the pEC50 [33] was under 5.40. The MCC [34] was 20 µM and the pEC50 [36] was under 6.10.

With CSc1nc(NCCCCNc2ccnc3cc(Cl)ccc23)c(C#N)c(-c2cccc([N+](=O)[O-])c2)n1 the pEC50 [1] was under 5.40, the pEC50 [2] was under 5.40 and the Activity [37] was “Active”. The MCC [3] was 100 µM, the pEC50 [4] was under 6.10 and the pEC50 [5] was under 6.10. The CC50 [6] was 4200 nM, the pEC50 [7] was under 4.70 and the selectivity ratio [8] was 19.7. The Activity [38] was “Active”, the pEC50 [9] was under 5.40 and the pEC50 [10] was under 5.40. It also gave an MCC [11] of at least 4 µM, a pEC50 [12] of under 4.70 and a pEC50 [13] of under 5.40. For the same molecule, the MCC [14] was 20 µM, the pEC50 [15] was under 5.40 and the pIC50 [16] was 5.68. For the same molecule, the pEC50 [17] was under 5.40, the pEC50 [18] was under 5.40 and the “Ratio IC50” value [19] was 0.81. It also gave a pEC50 [20] of under 6.10, a pEC50 [21] of under 5.40 and a pIC50 [22] of 7.16. The pEC50 [23] was under 6.10, the pIC50 [24] was 7.25 and the pEC50 [25] was under 4.70. For the same molecule, the pEC50 [26] was under 5.40, the CC50 [27] was 9600 nM and the Activity [39] was “Active”. For the same molecule, the pIC50 [28] was 5.96, the Activity [40] was “Active” and the selectivity ratio [29] was 16. For the same molecule, the pEC50 [30] was under 5.40, the pIC50 [31] was 5.68 and the pEC50 [32] was under 5.40. For the same molecule, the pEC50 [33] was under 5.40, the MCC [34] was 20 µM and the “Ratio IC50” value [35] was 4. For the same molecule, the pEC50 [36] was under 5.40.

For CSc1nc(NCCCCNc2ccnc3cc(Cl)ccc23)c(C#N)c(-c2ccc([N+](=O)[O-])cc2)n1, the pEC50 [1] was under 6.10, the pEC50 [2] was under 6.10 and the MCC [3] was 4 µM. For the same molecule, the pEC50 [4] was under 6.10, the pEC50 [5] was under 6.10 and the CC50 [6] was 1700 nM. The pEC50 [7] was under 6.10, the selectivity ratio [8] was 1.6 and the pEC50 [9] was under 6.10. It also gave a pEC50 [10] of under 6.10, an MCC [11] of 4 µM and a pEC50 [12] of under 6.10. For the same molecule, the pEC50 [13] was under 6.10, the MCC [14] was 4 µM and the pEC50 [15] was under 6.10. It also gave a pIC50 [16] of 6.02, a pEC50 [17] of under 6.10 and a pEC50 [18] of under 6.10. The “Ratio IC50” value [19] was 12.13, the pEC50 [20] was under 6.10 and the pEC50 [21] was under 6.10. The pIC50 [22] was 7.36, the pEC50 [23] was under 6.10 and the pIC50 [24] was 6.27. The pEC50 [25] was under 6.10, the pEC50 [26] was under 6.10 and the CC50 [27] was 2000 nM. For the same molecule, the pIC50 [28] was 6.05, the selectivity ratio [29] was 20.3 and the pEC50 [30] was under 6.10. It also gave a pIC50 [31] of 6.12, a pEC50 [32] of under 6.10 and a pEC50 [33] of under 6.10. It also gave an MCC [34] of 4 µM and a pEC50 [36] of under 6.10.
